According to patent EP0268915A2, “Trifluoromethylcarbonyl derivatives” (BAYER AG, priority 1986, dated 1988):
Like-named read-outs stand apart in the source and are kept apart here.

Tests used:
Assay type in all cases: in vivo
[1] = test system: Nephotettix cincticeps; assay: Nephotettix test (rice seedlings dipped in the active compound preparation); conditions: for mortality at 0.0001 %: Nephotettix cincticeps, 144 h, read-out: Wirkung (Abtötung in %)
Excerpt: (§1) Lösungsmittel: 7 Gewichtsteile Dimethylformamid Emulgator: 1 Gewichtsteil Alkylarylpolyglykolether
Zur Herstellung einer zweckmäßigen Wirkstoffzubereitung vermischt man 1 Gewichstteil Wirkstoff mit der angegebenen Menge Lösungsmittel und der angegebenen Menge Emulgator und verdünnt das Konzentrat mit Wasser auf die gewünschte Konzentration.
Reiskeimlinge (Oryza sativa) werden durch Tauchen in die Wirkstoffzubereitung der gewünschten Konzentration behandelt und mit der Grünen Reiszikade (Nephotettix cincticeps) besetzt, solange die Keimlinge noch feucht sind.
Nach der gewünschten Zeit wird die Abtötung in % bestimmt. Dabei bedeutet 100 %, daß alle Zikaden abgetötet wurden; 0 % bedeutet, daß keine Zikaden abgetötet wurden.

[2] = test system: Phaedon cochleariae-Larven; assay: Critical concentration test / root-systemic action, Phaedon cochleariae larvae; conditions: Wirkstoffkonzentration 20 ppm im Boden, Kohl (Brassica oleracea), Besatz nach 7 Tagen, Auswertung nach weiteren 2 Tagen
Excerpt: Grenzkonzentrations-Test / Wurzelsystemische Wirkung Testinsekt: Phaedon cochleariae-Larven Lösungsmittel: 3 Gewichtsteile Aceton
Emulgator: 1 Gewichtsteil Alkylarylpolyglykolether
(§2) Zur Herstellung einer zweckmäßigen Wirkstoffzubereitung vermischt man 1 Gewichtsteil Wirkstoff mit der angegebenen Menge Lösungsmittel, gibt die angegebene Menge Emulgator zu und verdünnt das Konzentrat mit Wasser auf die gewünschte Konzentration.
(§3) Die Wirkstoffzubereitung wird innig mit Boden vermischt. Dabei spielt die Konzentration des Wirkstoffs in der Zubereitung praktisch keine Rolle, entscheidend ist allein die Wirkstoffgewichtsmenge pro Volumeneinheit Boden, welche in ppm (= mg/1) angegeben wird. Man füllt den behandelten Boden in Töpfe und bepflanzt diese mit Kohl (Brassica oleracea). Der Wirkstoff kann so von den Pflanzenwurzeln aus dem Boden aufgenommen und in die Blätter transportiert werden.
(§4) Für den Nachweis des wurzelsystemischen Effektes werden nach 7 Tagen ausschließlich die Blätter mit den obengenannten Testtieren besetzt. Nach weiteren 2 Tagen erfolgt die Auswertung durch Zählen oder Schätzen der toten Tiere. Aus den Abtötungszahlen wird die wurzelsystemische Wirkung des Wirkstoffs abgeleitet. Sie ist 100 %, wenn alle Testtiere abgetötet sind und 0 %, wenn noch genau so viele Testinsekten leben wie bei der unbehandelten Kontrolle.

[3] = test system: Myzus persicae; assay: Critical concentration test / root-systemic action, Myzus persicae; conditions: Wirkstoffkonzentration 20 ppm im Boden, Kohl (Brassica oleracea), Besatz nach 7 Tagen, Auswertung nach weiteren 2 Tagen; for mortality at 20 µg/mL: Myzus persicae, 48 h, read-out: wurzelsystemische Wirkung
Excerpt: Grenzkonzentrations-Test / Wurzelsystemische Wirkung Testinsekt: Myzus persicae Lösungsmittel: 3 Gewichtsteile Aceton Emulgator: 1 Gewichtsteil Alkylarylpolyglykolether
as §2, §3, §4

[4] = test system: Aphis fabae; assay: Aphis test (systemic action, soil drench of bean plants); conditions: 96 h, read-out: Wirkung (Abtötung in %)
Description: Aphis-Test (systemische Wirkung)
as §1
Zur Herstellung einer zweckmäßigen Wirkstoffzubereitung vermischt man 1 Gewichtsteil Wirkstoff mit der angegebenen Menge Lösungsmittel und der angegebenen Menge Emulgator und verdünnt das Konzentrat mit Wasser auf die gewünschte Konzentration.
Mit je 20 ml Wirkstoffzubereitung der gewünschten Konzentration werden Bohnenpflanzen (Vicia faba), die stark von der schwarzen Bohnenlaus (Aphis fabae) befallen sind, angegossen, so daß die Wirkstoffzubereitung in den Boden eindringt, ohne den Sproß zu benetzen. Der Wirkstoff wird von den Wurzeln aufgenommen und in den Sproß weitergeleitet.
Nach der gewünschten Zeit wird die Abtötung in % bestimmt. Dabei bedeutet 100 %, daß alle Blattläuse abgetötet wurden; 0 % bedeutet, daß keine Blattläuse abgetötet wurden.

[5] = test system: Lucilia cuprina resistent-Larven; assay: Test with resistant Lucilia cuprina larvae; conditions: 24 h, Wirkstoffkonzentration 100 ppm, nach 24 Stunden, read-out: Abtötung
Excerpt: Test mit Lucilia cuprina resistent-Larven
Emulgator: 35 Gewichtsteile Ethylenglykolmonomethylether 35 Gewichtsteile Nonylphenolpolyglykolether
Zur Herstellung einer zweckmäßigen Wirkstoffzubereitung vermischt man drei Gewichtsteile Wirkstoff mit sieben Gewichtsteilen des oben angegebenen Gemisches und verdünnt das so erhaltene Konzentrat mit Wasser auf die jeweils gewünschte Konzentration.
Etwa 20 Lucilia cuprina res.-Larven werden in ein Teströhrchen gebracht, welches ca. 1 cm^3 Pferdefleisch und 0,5 ml der Wirkstoffzubereitung enthält. Nach 24 Stunden wird der Abtötungsgrad bestimmt.

[6] = Wirkstoffkonzentration 0,0001 %, nach 6 Tagen, Reiskeimlinge (Oryza sativa) getaucht
[7] = Wirkstoffkonzentration 0,01 %, nach 4 Tagen, Bohnenpflanzen (Vicia faba) angegossen, systemisch

## O=C(C=C1SCCN1Cc1ccc(Cl)nc1)C(F)(F)F [Beispiel 3, 3-(6-Chlor-pyrid-3-yl)-methyl-2-(trifluormethylcarbonylmethylen)-1,3-thiazolidin]
[1]; [6]
  Wirkung (Abtötung in %): 90%
[2]
  wurzelsystemische Wirkung: 100%
[3]
  wurzelsystemische Wirkung: 100%

## O=C(C=C1NCCN1Cc1ccc(Cl)nc1)C(F)(F)F [Beispiel 4, 1-(6-Chlor-pyrid-3-yl)-methyl-2-(trifluormethylcarbonylmethylen)-imidazolidin]
[4]; [7]
  mortality at 0.01 %: 100%
[3]
  mortality at 20 µg/mL: 100%
[5]
  mortality at 100 µg/mL: 100%

## O=C(C(C(=O)C(F)(F)F)=C1NCCN1Cc1ccc(Cl)nc1)C(F)(F)F [Beispiel 5, 2-[(Di-trifluormethylcarbonyl)-methylen]-3-(6-chlor-pyrid-3-yl)-methylimidazolidin]
[1]; [6]
  mortality at 0.0001 %: 100%
[4]; [7]
  mortality at 0.01 %: 100%
[3]
  mortality at 20 µg/mL: 100%
[5]
  mortality at 100 µg/mL: 100%

## O=C(C=C1NCCCN1Cc1ccc(Cl)nc1)C(F)(F)F [Beispiel 8]
[4]; [7]
  mortality at 0.01 %: 100%
[2]; Phaedon, 48 h, read-out: wurzelsystemische Wirkung
  mortality at 20 µg/mL: 100%
[3]
  mortality at 20 µg/mL: 100%
[5]
  mortality at 100 µg/mL: 100%

## O=C(C(C(=O)C(F)(F)F)=C1NCCCN1Cc1ccc(Cl)nc1)C(F)(F)F [Beispiel 9]
[5]
  mortality at 100 µg/mL: 100%

## O=[N+]([O-])C=C1NCCCS1 [Vergleichssubstanz (A), Tetrahydro-2-nitromethylen-2H-1,3-thiazin, reference compound]
[1]
  mortality at 0.0001 %: 20%
[4]
  mortality at 0.01 %: 50%
[2]
  wurzelsystemische Wirkung: keine Wirkung
[3]
  wurzelsystemische Wirkung: keine Wirkung
